This is an account of results in paper PMC5808083, “Carfilzomib resistance due to ABCB1/MDR1 overexpression is overcome by nelfinavir and lopinavir in multiple myeloma” (Leukemia, 2017).

Like-named read-outs stand apart in the source and are kept apart here.

The test system of one data set is T1, AMO-CFZ.
T1 construct: AMO-1 derived, carfilzomib-adapted, ABCB1 overexpressing
In words: cells. More on the design: species or system AMO-1, AMO-BTZ, AMO-CFZ and AMO-CFZ clones #1 and #7; cell viability, MTS tetrazolium (CellTiter 96 AQueous One Solution), continuous treatment. Particulars: Homo sapiens, AMO1, 48 h. As for the experimental part: (§1) Generation of AMO-CFZ Ub-G67V-GFP cells AMO-CFZ cells were electroporated with a plasmid containing Ub-G76V-GFP [1] (obtained from Nico Dantuma; Addgene plasmid #11941) and subsequently cultured in the presence of selecting antibiotic G418 (500ng/ml, Gibco/Invitrogen, MA, USA). Subclones were obtained using MethoCult (StemCell Technologies, USA) and the clone with highest accumulation of fluorescence after BTZ treatment was chosen for further analysis. Assessment of cell viability Viability of cell lines was determined after 48h of treatment by MTS tetrazolium compound using CellTiter 96® AQueous One Solution) (Promega, WI, USA) according to manufactures protocol. PgP-Glo assay PgP-Glo assay (Promega, WI, USA) was performed according to manufacturer recommendations.  Figure 2 Comparison of dose–response of AMO-1 (sensitive) vs AMO-BTZ and AMO-CFZ (resistant) cells treated with PIs (BTZ and CFZ). (a) Residual activity of proteasome subunits visualized by activity-based probe labeling in intact cells after 1 h pulse treatment with indicated PIs. (b) Cell viability was measured after 48 hours of continuous treatment. Corresponding IC50 values are presented in Supplementary Table S2.  Figure 7 Sensitivity profile of ABCB1 inhibitors co-treatment with PIs used in the clinic or in clinical development in AMO-1, AMO-BTZ and AMO-CFZ cell lines. Dose–response curves of PI co-treated with NFV (10 μM) and LPV (10 μM). Corresponding IC50 values are presented in Supplementary Table S7.

In data set [1] the test system is T2, AMO-CFZ clone #7 (depleted ABCB1).
T2 construct: AMO-1 derived, carfilzomib-adapted, clone 7 ABCB1 depleted by CRISPR/Cas9 (subtotal elimination)
Briefly: cells. Particulars: ABCB1 depleted clone #7. More on the design: species or system AMO-CFZ clones 1 and 7; Cytotoxicity dose-response of myeloma drugs on AMO-CFZ clones with or without ABCB1, IC50. The text has this:
(§2) To dissect the role of ABCB1 overexpression for the activity of standard myeloma drugs we compared the cytotoxic effects of such drugs on AMO-CFZ cells with (clone #1) or without such ABCB1 expression (clone 7) (Figure 3c and Supplementary Table S4). To score for good versus poor ABCB1-substrate myeloma drugs, we calculated the ratio of IC50 values between the ABCB1-containing and the ABCB1-deficient clone for each of the myeloma drug. […] (a) Western blot evaluation of the ABCB1 depletion in AMO-CFZ clones obtained by CRISPR/Cas9 genome editing tool. (b) Dose–response of AMO-CFZ clones with depleted ABCB1 to CFZ. Corresponding IC50 values are presented in Supplementary Table S3. (c) Dose–response of selected AMO-CFZ clones 1 and 7 to CFZ and convectional drugs used in the treatment of MM. (d) Dose–response of AMO-CFZ clones 1 and 7 to approved PI or those in clinical development. Corresponding IC50 values are presented in Supplementary Table S4. To directly address the functional role of ABCB1 for CFZ resistance, we eliminated ABCB1 protein in AMO-CFZ cells by CRISPR/Cas9 (for example, clone 7) (Figure 3a). We observed an inverse correlation between the levels of ABCB1 and myeloma cell sensitivity to CFZ (Figure 3b, Supplementary Table S3). […] Overexpressed ABCB1 is therefore a therapeutic target for CFZ-resistant myeloma.

Data set [2] concerns T3, AMO-CFZ clone #1 (upregulated ABCB1).
T3 construct: AMO-1 derived, carfilzomib-adapted, clone 1 CRISPR/Cas9 clone retaining ABCB1 overexpression
In words: cells. More on the design: species or system AMO-CFZ clones 1 and 7; Cytotoxicity dose-response of myeloma drugs on AMO-CFZ clones with or without ABCB1, IC50. Particulars: ABCB1 upregulated clone #1.
Text: as §2

A further data set relates to AMO-1. In words: cells. Further details: species or system AMO-BTZ, AMO-CFZ and AMO-CFZ clones #1 and #7; cell viability, MTS tetrazolium (CellTiter 96 AQueous One Solution), continuous treatment. Particulars: Homo sapiens, AMO1, 48 h. As for the experimental part: as §1, with “recommendations.” for “recommendations. ”, “S2.” for “S2. ”, “Dose–response curves of PI co-treated with NFV (10 μM) and LPV (10 μM). Corresponding IC50 values are presented in Supplementary Table S7.” left out

A further data set relates to T4, AMO-BTZ.
T4 construct: AMO-1 derived, bortezomib-adapted
In words: cells. Particulars: Homo sapiens, AMO1, 48 h. Further details: species or system AMO-1, AMO-CFZ and AMO-CFZ clones #1 and #7; cell viability, MTS tetrazolium (CellTiter 96 AQueous One Solution), continuous treatment. As for the experimental part: as §1, with “recommendations.” for “recommendations. ”, “S2.” for “S2. ”, “Dose–response curves of PI co-treated with NFV (10 μM) and LPV (10 μM). Corresponding IC50 values are presented in Supplementary Table S7.” left out

Data set [3] deals with T3, AMO-CFZ clone #1 (upregulated ABCB1). In words: cells. More on the design: species or system AMO-1, AMO-BTZ, AMO-CFZ and AMO-CFZ clones #1 and #7; cell viability, MTS tetrazolium (CellTiter 96 AQueous One Solution), continuous treatment. Conditions: Homo sapiens, AMO1, 48 h; CFZ alone. On the procedure: as §1
For data set [4] the test system is unchanged. In words: cells. More on the design: species or system AMO-1, AMO-BTZ, AMO-CFZ and AMO-CFZ clones #1 and #7; cell viability, MTS tetrazolium (CellTiter 96 AQueous One Solution), continuous treatment. Conditions: Homo sapiens, AMO1, 48 h; CFZ alone. On the procedure: as §1, with “recommendations.” for “recommendations. ”, “S2.” for “S2. ”, “Dose–response curves of PI co-treated with NFV (10 μM) and LPV (10 μM). Corresponding IC50 values are presented in Supplementary Table S7.” left out
This is another data set of the same source.

The target of another data set is ABCB1 (Homo sapiens, UniProt P08183). Briefly: MitoTracker Green FM and MVB003 efflux (flow cytometry) in ABCB1-overexpressing AMO-CFZ cells.
Sequence of ABCB1 (P08183 whole entry): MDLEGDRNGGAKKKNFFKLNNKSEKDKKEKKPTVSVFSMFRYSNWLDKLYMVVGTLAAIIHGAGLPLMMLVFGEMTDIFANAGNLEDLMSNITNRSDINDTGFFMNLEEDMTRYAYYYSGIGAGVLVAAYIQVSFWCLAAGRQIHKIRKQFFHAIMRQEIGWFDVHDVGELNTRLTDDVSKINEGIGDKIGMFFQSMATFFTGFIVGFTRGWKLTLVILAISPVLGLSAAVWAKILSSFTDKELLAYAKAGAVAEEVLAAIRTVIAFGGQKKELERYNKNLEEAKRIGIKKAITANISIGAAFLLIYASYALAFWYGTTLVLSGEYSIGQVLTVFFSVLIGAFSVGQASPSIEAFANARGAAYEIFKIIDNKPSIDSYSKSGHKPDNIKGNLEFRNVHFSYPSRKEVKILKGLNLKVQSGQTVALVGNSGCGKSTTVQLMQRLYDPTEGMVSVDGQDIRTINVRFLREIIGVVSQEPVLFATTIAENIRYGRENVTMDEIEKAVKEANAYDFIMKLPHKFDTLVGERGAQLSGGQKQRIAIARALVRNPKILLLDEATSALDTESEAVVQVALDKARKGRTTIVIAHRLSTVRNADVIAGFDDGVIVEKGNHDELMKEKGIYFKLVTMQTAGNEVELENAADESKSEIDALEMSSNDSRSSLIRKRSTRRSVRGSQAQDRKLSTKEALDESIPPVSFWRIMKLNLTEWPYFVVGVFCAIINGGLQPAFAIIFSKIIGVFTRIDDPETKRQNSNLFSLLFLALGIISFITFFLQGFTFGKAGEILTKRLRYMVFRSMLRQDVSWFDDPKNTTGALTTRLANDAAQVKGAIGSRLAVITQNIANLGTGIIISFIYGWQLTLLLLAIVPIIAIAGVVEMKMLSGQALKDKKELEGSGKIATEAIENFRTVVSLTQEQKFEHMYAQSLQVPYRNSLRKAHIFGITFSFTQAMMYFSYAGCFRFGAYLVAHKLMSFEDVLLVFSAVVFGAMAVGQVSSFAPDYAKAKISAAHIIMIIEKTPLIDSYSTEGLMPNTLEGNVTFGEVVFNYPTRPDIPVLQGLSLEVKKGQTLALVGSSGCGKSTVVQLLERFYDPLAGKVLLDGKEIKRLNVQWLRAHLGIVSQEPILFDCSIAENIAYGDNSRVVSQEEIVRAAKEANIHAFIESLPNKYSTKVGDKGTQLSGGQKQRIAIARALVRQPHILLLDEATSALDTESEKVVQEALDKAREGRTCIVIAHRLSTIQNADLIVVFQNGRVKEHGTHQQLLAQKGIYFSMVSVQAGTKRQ

With `CC(C)C[C@H](NC(=O)[C@H](Cc1ccccc1)NC(=O)c1cnccn1)B(O)O` [BTZ, bortezomib], the IC50 came to 156 nM in the data set on AMO-CFZ (PI alone); 89.3 nM in the data set with AMO-CFZ (read-out: BTZ); 26.8 nM in data set [1]; 69.3 nM in data set [2]; 6.3 nM in the data set on AMO-1 (read-out: BTZ); 1340 nM with AMO-BTZ (read-out: BTZ).

In the case of `CC(C)C[C@H](NC(=O)[C@H](CCc1ccccc1)NC(=O)CN1CCOCC1)C(=O)N[C@@H](Cc1ccccc1)C(=O)N[C@@H](CC(C)C)C(=O)[C@@]1(C)CO1` [CFZ, carfilzomib], the IC50 in the data set on AMO-CFZ (read-out: CFZ) is 892 nM; in data set [3], 824 nM; in data set [4] it was 796 nM; in data set [1] it was 78.5 nM; in data set [2] it was 613 nM; with AMO-1 (read-out: CFZ) it was 4.8 nM. In the data set on AMO-BTZ (read-out: CFZ), the IC50 came out at 67.2 nM.

In the case of `CC(C)C[C@H](NC(=O)[C@@H](NC(=O)c1cccc(-c2ccccc2)n1)[C@@H](C)O)B(O)O` [Delanzomib], the IC50 in the data set on AMO-CFZ (PI alone) came to 1040 nM; in data set [1], 80.5 nM; in data set [2] it was 294 nM.

With `CC(C)C[C@H](NC(=O)CNC(=O)c1cc(Cl)ccc1Cl)B(O)O` [Ixazomib], the IC50 in the data set on AMO-CFZ (PI alone) was found to be 1280 nM; in data set [1], 345 nM; in data set [2], 692 nM.

On to `C[C@@]12OC(=O)[C@]1([C@@H](O)[C@@H]1C=CCCC1)NC(=O)[C@@H]2CCCl` [Marizomib], for which the IC50 worked out at 32.9 nM in data set [1] and 61.4 nM in data set [2].

`COC[C@H](NC(=O)c1cnc(C)s1)C(=O)N[C@@H](COC)C(=O)N[C@@H](Cc1ccccc1)C(=O)[C@@]1(C)CO1` [Oprozomib]: the IC50 came to 1320 nM in the data set on AMO-CFZ (PI alone), 221 nM in data set [1] and 1470 nM in data set [2].

In the case of `Cc1[nH]c2ccccc2c1CCNCc1ccc(/C=C/C(=O)NO)cc1` [Panobinostat], the IC50 was found to be 49.5 nM in data set [1] and 220 nM in data set [2].

In the case of `COC(=O)[C@H]1[C@H]2C[C@@H]3c4[nH]c5cc(OC)ccc5c4CCN3C[C@H]2C[C@@H](OC(=O)c2cc(OC)c(OC)c(OC)c2)[C@@H]1OC` [RSP, reserpine], the “MitoTracker Green FM and MVB003 efflux (flow cytometry) in ABCB1-overexpressing” value at ABCB1 is “Addition of VPM or reserpine (RSP) in the micromolar range led to a sizable, dose-dependent increase in cellular fluorescence”.
